# Measured values: patent US11987586B1 (TAKEDA PHARMACEUTICAL COMPANY LIMITED, priority 2022, dated 2024)
# Target: T1, human OX2 receptor (Homo sapiens, UniProt O43614)
# T1 construct: expressed in transfected cells
# T1 sequence (O43614 1-444): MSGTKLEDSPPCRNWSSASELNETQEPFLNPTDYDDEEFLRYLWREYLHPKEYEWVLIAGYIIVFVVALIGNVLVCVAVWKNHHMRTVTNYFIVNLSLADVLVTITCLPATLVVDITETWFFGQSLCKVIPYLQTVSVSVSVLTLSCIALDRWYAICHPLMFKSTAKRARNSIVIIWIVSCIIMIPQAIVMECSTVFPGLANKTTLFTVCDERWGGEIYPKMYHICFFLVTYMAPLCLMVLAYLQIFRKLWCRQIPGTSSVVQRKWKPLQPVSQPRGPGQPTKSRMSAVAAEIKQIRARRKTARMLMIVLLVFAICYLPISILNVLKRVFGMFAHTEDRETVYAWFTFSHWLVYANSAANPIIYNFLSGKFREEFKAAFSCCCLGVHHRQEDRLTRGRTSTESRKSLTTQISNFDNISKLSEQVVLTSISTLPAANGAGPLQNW
# Experiment: Measurement of orexin type 2 receptor agonist activity (calcium fluorescence, Fluo-4, FDSS)
# Assay type: cell-based
# Conditions: 3 uM test compound; CHO cells expressing human OX2 receptor; DMSO = 0%, 10 nM orexin A (human) = 100%
# Method: In order to obtain cell clones that stably express human orexin type 2 receptor, human orexin type 2 (residues 1-444, NCBI Reference Sequence: AK314279) was constructed in a pcDNA3.1 (+) vector (Invitrogen) to express in mammalian cells. This plasmid DNA was transfected into CHO-K1 cells by electroporation, and stable clones were obtained by limiting dilution using resistance to G418 as a selection marker.
# CHO cells in which human OX2 receptor was forcibly expressed were seeded at 10,000 cells/well into a 384-well black transparent bottom plate (BD falcon), and were incubated at 37° C., 5% CO2 for 1 day after incubation at room temperature for 30 minutes. After removing the cell plate medium, assay buffer containing calcium indicator A (HBSS (Thermo Fisher Scientific), 20 mM HEPES (Thermo Fisher Scientific), 0.1% BSA (Sigma-Aldrich), 2.5 μg/mL Fluo-4 AM (Dojin Kagaku), 0.08% Pluronic F127 (Dojin Kagaku), 1.25 mM probenecid (Dojin Kagaku)) was added at 30 μL/well. After incubation in a 5% CO2 incubator at 37° C. for 30 minutes, it was incubated at room temperature for another 30 minutes. Add 10 μL/well of the test compound diluted with assay buffer B (HBSS, 20 mM HEPES, 0.1% BSA), and use FDSS μCELL (Hamamatsu Photonics) to measure the fluorescence value every 1 second for 1 minute, and then every 2 seconds for 1 minute. It was measured for 1 minute and 40 seconds. The amount of fluorescence value when DMSO is added instead of the test compound is defined as 0%, and the amount of fluorescence value when orexin A (human) (Peptide Institute) with a final concentration of 10 nM is added is defined as 100%. The activity (%) of the test compound was calculated.
row,Compound,"OX2R agonist activity (3 uM, %)"
1,"Cc1cc2onc(-n3cc4n(c3=O)CC(NS(C)(=O)=O)C(F)(F)C4)c2c(-c2c(F)cc(F)cc2F)n1 (single isomer, unassigned) [Example 289, N-{(6R*)-7,7-difluoro-2-[6-methyl-4-(2,4,6-trifluorophenyl)[1,2]oxazolo[4,5-c]pyridin-3-yl]-3-oxo-2,3,5,6,7,8-hexahydroimidazo[1,5-a]pyridin-6-yl}methanesulfonamide]",97%
2,"CCS(=O)(=O)NC1Cn2c(C)c(-c3noc4cccc(-c5c(F)cccc5F)c34)c(=O)n2C1 (single isomer, unassigned) [Example 336, N-{(2R*)-6-[4-(2,6-difluorophenyl)-1,2-benzoxazol-3-yl]-7-methyl-5-oxo-2,3-dihydro-1H,5H-pyrazolo[1,2-a]pyrazol-2-yl}ethanesulfonamide]",98%
3,"CCS(=O)(=O)NC1Cn2cc(-c3noc4cccc(-c5c(F)cccc5F)c34)c(=O)n2C1 (single isomer, unassigned) [Example 339, N-{(2R*)-6-[4-(2,6-difluorophenyl)-1,2-benzoxazol-3-yl]-5-oxo-2,3-dihydro-1H,5H-pyrazolo[1,2-a]pyrazol-2-yl}ethanesulfonamide]",96%
4,"Cc1c(-c2noc3cccc(-c4c(F)cccc4F)c23)c(=O)n2n1CC(NS(C)(=O)=O)C2 (single isomer, unassigned) [Example 340, N-{(2R*)-6-[4-(2,6-difluorophenyl)-1,2-benzoxazol-3-yl]-7-methyl-5-oxo-2,3-dihydro-1H,5H-pyrazolo[1,2-a]pyrazol-2-yl}methanesulfonamide]",92%
5,"CCS(=O)(=O)NC1CN2C(=O)N(c3noc4cccc(-c5c(F)cccc5F)c34)C[C@@H]2C1C (stereo in doubt) [Example 158, N-{(6R*,7R*,7aS)-2-[4-(2,6-difluorophenyl)-1,2-benzoxazol-3-yl]-7-methyl-3-oxohexahydro-1H-pyrrolo[1,2-c]imidazol-6-yl}ethanesulfonamide]",103%
6,"CCS(=O)(=O)NC1CN2C(=O)N(c3noc4cccc(-c5c(F)cccc5F)c34)C[C@@H]2C1C (stereo in doubt) [Example 183, N-{(6R*,7S*,7aS)-2-[4-(2,6-difluorophenyl)-1,2-benzoxazol-3-yl]-7-methyl-3-oxohexahydro-1H-pyrrolo[1,2-c]imidazol-6-yl}ethanesulfonamide]",101%
7,"CCS(=O)(=O)N[C@H]1Cc2cn(-c3cnn4cccc(-c5c(F)cccc5F)c34)c(=O)n2C1 [Example 2, N-{(6S)-2-[4-(2,6-difluorophenyl)pyrazolo[1,5-a]pyridin-3-yl]-3-oxo-2,5,6,7-tetrahydro-3H-pyrrolo[1,2-c]imidazol-6-yl}ethanesulfonamide]",108%
8,"CCS(=O)(=O)N[C@@H]1CN2C(=O)N(c3noc4cccc(-c5c(F)cccc5F)c34)C[C@@H]2C1(C)C [Example 6, N-{(6S,7aS)-2-[4-(2,6-difluorophenyl)-1,2-benzoxazol-3-yl]-7,7-dimethyl-3-oxohexahydro-1H-pyrrolo[1,2-c]imidazol-6-yl}ethanesulfonamide]",96%
9,"CCS(=O)(=O)N[C@@H]1CN2C(=O)N(c3noc4ccc(F)c(-c5c(F)cccc5F)c34)C[C@@H]2C1(F)F [Example 7, N-{(6R,7aR)-2-[4-(2,6-difluorophenyl)-5-fluoro-1,2-benzoxazol-3-yl]-7,7-difluoro-3-oxohexahydro-1H-pyrrolo[1,2-c]imidazol-6-yl}ethanesulfonamide]",105%
10,"CCS(=O)(=O)N[C@@H]1CN2C(=O)N(c3noc4cc(Cl)cc(-c5c(F)cc(F)cc5F)c34)C[C@@H]2C1(F)F [Example 9, N-{(6R,7aR)-2-[6-chloro-4-(2,4,6-trifluorophenyl)-1,2-benzoxazol-3-yl]-7,7-difluoro-3-oxohexahydro-1H-pyrrolo[1,2-c]imidazol-6-yl}ethanesulfonamide]",92%
11,"CCS(=O)(=O)N[C@H]1Cc2c(C)n(-c3noc4cccc(-c5c(F)cccc5F)c34)c(=O)n2C1 [Example 12, N-{(6S)-2-[4-(2,6-difluorophenyl)-1,2-benzoxazol-3-yl]-1-methyl-3-oxo-2,5,6,7-tetrahydro-3H-pyrrolo[1,2-c]imidazol-6-yl}ethanesulfonamide]",105%
12,"CNS(=O)(=O)N[C@@H]1CN2C(=O)N(c3noc4cccc(-c5c(F)cccc5F)c34)C[C@@H]2C1(F)F [Example 17, N-{(6R,7aR)-2-[4-(2,6-difluorophenyl)-1,2-benzoxazol-3-yl]-7,7-difluoro-3-oxohexahydro-1H-pyrrolo[1,2-c]imidazol-6-yl}-N′-methylsulfuric diamide]",104%
13,"COCS(=O)(=O)N[C@H]1C[C@H]2CN(c3noc4cccc(-c5c(F)cccc5F)c34)C(=O)N2C1 [Example 20, N-{(6S,7aS)-2-[4-(2,6-difluorophenyl)-1,2-benzoxazol-3-yl]-3-oxohexahydro-1H-pyrrolo[1,2-c]imidazol-6-yl}-1-methoxymethanesulfonamide]",97%
14,"CCS(=O)(=O)N[C@H]1C[C@H]2CN(c3noc4cccc(-c5c(F)ccc(F)c5F)c34)C(=O)N2C1 [Example 21, N-{(6S,7aS)-3-oxo-2-[4-(2,3,6-trifluorophenyl)-1,2-benzoxazol-3-yl]hexahydro-1H-pyrrolo[1,2-c]imidazol-6-yl}ethanesulfonamide]",81%
15,"CS(=O)(=O)N[C@@H]1CN2C(=O)N(c3noc4cc(Cl)cc(-c5c(F)cc(F)cc5F)c34)C[C@@H]2C1(F)F [Example 25, N-{(6R,7aR)-2-[6-chloro-4-(2,4,6-trifluorophenyl)-1,2-benzoxazol-3-yl]-7,7-difluoro-3-oxohexahydro-1H-pyrrolo[1,2-c]imidazol-6-yl}methanesulfonamide]",96%
16,"CS(=O)(=O)N[C@H]1Cc2cn(-c3noc4cccc(-c5c(F)cccc5F)c34)c(=O)n2C1 [Example 26, N-{(6S)-2-[4-(2,6-difluorophenyl)-1,2-benzoxazol-3-yl]-3-oxo-2,5,6,7-tetrahydro-3H-pyrrolo[1,2-c]imidazol-6-yl}methanesulfonamide]",97%
17,"CN(C)S(=O)(=O)N[C@H]1C[C@H]2CN(c3noc4cccc(-c5c(F)cccc5F)c34)C(=O)N2C1 [Example 28, N′-{(6S,7aS)-2-[4-(2,6-difluorophenyl)-1,2-benzoxazol-3-yl]-3-oxohexahydro-1H-pyrrolo[1,2-c]imidazol-6-yl}-N,N-dimethylsulfuric diamide]",106%
18,"O=C1N(c2noc3cccc(-c4c(F)cccc4F)c23)C[C@@H]2C[C@H](NS(=O)(=O)CF)CN12 [Example 29, N-{(6S,7aS)-2-[4-(2,6-difluorophenyl)-1,2-benzoxazol-3-yl]-3-oxohexahydro-1H-pyrrolo[1,2-c]imidazol-6-yl}-1-fluoromethanesulfonamide]",101%
19,"CCS(=O)(=O)N[C@H]1C[C@H]2CN(c3noc4c(C)ccc(-c5c(F)cccc5F)c34)C(=O)N2C1 [Example 30, N-{(6S,7aS)-2-[4-(2,6-difluorophenyl)-7-methyl-1,2-benzoxazol-3-yl]-3-oxohexahydro-1H-pyrrolo[1,2-c]imidazol-6-yl}ethanesulfonamide]",94%
20,"CCS(=O)(=O)N[C@H]1C[C@H]2CN(c3noc4cccc(-c5c(F)cccc5C(F)(F)F)c34)C(=O)N2C1 [Example 32, N-[ (6S,7aS)-2-{4-[2-fluoro-6-(trifluoromethyl)phenyl]-1,2-benzoxazol-3-yl}-3-oxohexahydro-1H-pyrrolo[1,2-c]imidazol-6-yl] ethanesulfonamide]",94%
21,"CCS(=O)(=O)N[C@@H]1CN2C(=O)N(c3noc4cccc(-c5c(F)cccc5F)c34)C[C@@H]2C1(F)F [Example 33, N-{(6R,7aR)-2-[4-(2,6-Difluorophenyl)-1,2-benzoxazol-3-yl]-7,7-difluoro-3-oxohexahydro-1H-pyrrolo[1,2-c]imidazol-6-yl}ethanesulfonamide]",108%
